Experimental data from patent US6423855B1, “Cytoprotective compounds” (Virginia Commonwealth University, priority 1996, dated 2002).
≈ marks a conversion by molar mass, not a printed value. Like-named read-outs stand apart in the source and are kept apart here.

Assays:
[1] = system: PLA2 activities derived from human platelets and human polymorphonuclear leukocytes (PMNs); test: in vitro PLA2 activities from human platelets and PMNs; type: biochemical; conditions: unesterified cis-unsaturated fatty acids
Excerpt: Oxidation of the sarcoplasmic reticulum of muscle and of phospholipid membranes predisposes them to phospholipase degradation. Phospholipid membranes that have been oxidized at particular sites may appear intact and maintain functional activity, but their oxidation makes them vulnerable to degradation and destruction by PLA2 or other phospholipases from endogenous or exogenous sources.

epidermis cell turnover = test: cell turnover rate (dansyl chloride); type: in vivo, human
Procedure: Two PX compounds PX-11 and PX-13 were evaluated in a cream formulation prepared under GMP. The chemicals were formulated into a bland cream and evaluated in the following human or mouse skin tests: (1) occluded patch test for irritation; (2) cell turnover rate; (3) transepidermal water loss; (4) skin moisturization; and (5) reduction in erythema after induced sunburn. The human skin tests were conducted on three volunteer female subjects, ages 29-32; a cream base with no added active was included as a control, while the untreated skin served as an additional basis for evaluation. Sunburn tests were performed on a total of 30 hairless albino mice. 2. Cell turnover rate: This parameter was measured by adsorption of dansyl chloride, in which 3% dansyl chloride was incorporated into petrolatum. This salve was applied over a 2.5 cm diameter circular area in the upper arm and a patch applied. 24 hours later the patch was removed. The intensity of dansyl chloride fluorescence was indicative of the cell turnover rate in the epidermis.

epidermal layer = test: transepidermal water loss; type: in vivo, human
Procedure: (§1) Two PX compounds PX-11 and PX-13 were evaluated in a cream formulation prepared under GMP. The chemicals were formulated into a bland cream and evaluated in the following human or mouse skin tests: (1) occluded patch test for irritation; (2) cell turnover rate; (3) transepidermal water loss; (4) skin moisturization; and (5) reduction in erythema after induced sunburn. The human skin tests were conducted on three volunteer female subjects, ages 29-32; a cream base with no added active was included as a control, while the untreated skin served as an additional basis for evaluation. Sunburn tests were performed on a total of 30 hairless albino mice. 3. Transepidermal water loss. This parameter was measured by affixing a flow cell on the forearm site, applying the cream, waiting 20 minutes, then flushing the volume with nitrogen and noting the moisture content of the effluent gases.

outer skin layers = test: skin moisturization (20 megahertz ultrasound); type: in vivo, human; conditions: for Ultrasound Density Score: 30 minutes after application
Procedure: as §1, with “4. Skin moisturization. Skin moisturization” for “3. Transepidermal water loss. This parameter”, “using 20 megahertz ultrasound (the presence of moisture produces” for “by affixing”, “density decrease in” for “flow cell on”, “outer skin layers), before and 30 minutes after product application to” for “forearm site, applying”, “forearm.” for “cream, waiting 20 minutes, then flushing the volume with nitrogen and noting the moisture content of the effluent gases.”

[2] = system: ultraviolet-induced erythema; test: protection against ultraviolet-induced erythema; type: in vivo, hairless albino mice
Procedure: The human skin tests were conducted on three volunteer female subjects, ages 29-32; a cream base with no added active was included as a control, while the untreated skin served as an additional basis for evaluation. Sunburn tests were performed on a total of 30 hairless albino mice.
5.Protection against ultraviolet-induced ervthema. The protection against ultraviolet-induced erythema (i.e., the burn and irritation produced after exposure to ultraviolet radiation), was measured by first irradiating 12 mice with destructive 3130 angstrom (Å) rays, applying the creams, and then evaluating the skin cells for erythema.

clone W2 (P.falciparum) = test: 3H-hypoxanthine incorporation, P.falciparum clone W2; type: cell-based; conditions: Plasmodium falciparum
clone D6 (P. falciparum) = test: 3H-hypoxanthine incorporation, P.falciparum clone D6; type: cell-based; conditions: Plasmodium falciparum
solubility in water = type: physicochemical
Procedure: To 6.22 g (20.8 mmol) of ricinoleic acid and 4.00 g of triethylamine in 150 mL THF was added 2.31 g (9.0 mmol) of ethylenediamine tetraacetic acid dianhydride. After stirring 15 min at 40° C., 20 mL of acetonitrile was added, since ethylenediamine tetraacetic acid dianhydride was not dissolved completely. The solution was stirred for 72 h under reflux and gradually turned yellow during this time. The solvent was removed under reduced pressure. The mixture was suspended in 100 mL of ether and extracted twice with 50 mL of saturated aqueous sodium chloride. After drying the ether solution, the solvent was removed under reduced pressure. The residue was suspended in methanol and filtered. The solvent was removed under reduced pressure. The residual oil was purified by chromatography on silica gel, eluted with a gradient of acetone/methanol (70:30 v/v to 0:100 v/v). N,N-bis(oleic acid-12-oxycarbonylmethyl)-N-N′-bis(carboxylmethyl) ethylenediamine was isolated as a yellow solid with a yield of 1.23 g (14%).

CCCCC/C=C\C/C=C\CCCCCCCC(=O)O [linoleic acid]
inhibition of in vitro PLA2 activity [1]: inhibited

tricinyl trioleate [PX-11]
Days to Cell Renewal Treated (epidermis cell turnover; cream-treated skin, upper arm): 28.8 days
% Change in Cell Turnover Time (epidermis cell turnover; treated vs untreated skin): +34%
% Change in Transepidermal Water Loss (epidermal layer; forearm, 20 minutes after applying cream): +649.0%
effect on water loss from the epidermal layer (epidermal layer; in vivo): opened the pores and permitted water to escape
effectiveness at promoting water loss vs control (epidermal layer; relative to control cream): 10 times
Ultrasound Density Score (outer skin layers; Subject 1, 7 = Best, 1 = Baseline): 3
Ultrasound Density Score (outer skin layers; Subject 2): 3
Ultrasound Density Score (outer skin layers; Subject 3): 1
Ultrasound Density Score Total (outer skin layers; Total of 3 subjects, 7 = Best, 1 = Baseline): 7
moisturization properties (outer skin layers; in vivo): good moisturization properties
Post-Radiation Erythema Ranking Mean ([2]; Mean, 1 = Best, 4 = Worst): 2
Post-Radiation Erythema Ranking ([2]; Subject 1, 1 = Best, 4 = Worst): 2
Post-Radiation Erythema Ranking ([2]; Subject 2, 1 = Best, 4 = Worst): 2
Post-Radiation Erythema Ranking ([2]; Subject 3, 1 = Best, 4 = Worst): 2
erythema reduction vs base cream ([2]; mouse, in vivo): significantly better than the base cream

CCCCC/C=C\C/C=C\C/C=C\C/C=C\CCCC(=O)O [arachidonic acid]
inhibition of in vitro PLA2 activity [1]: inhibited

OC(c1cc(C(F)(F)F)nc2c(C(F)(F)F)cccc12)C1CCCCN1 (centres unmarked) [mefloquine]
IC50 (clone W2 (P.falciparum); printed as control cultures sensitive to both drugs, compared with clone W2, read-out: IC50 growth): 0.0013 µg/mL (≈ 3.44 nM)
IC50 (clone D6 (P. falciparum); printed as control cultures sensitive to both drugs, compared with clone D6, read-out: IC50 growth): 4.3 ng/mL (≈ 11.4 nM)

CCN(CC)CCCC(C)Nc1ccnc2cc(Cl)ccc12 (centres unmarked) [chloroquine]
IC50 (clone W2 (P.falciparum); W2, read-out: IC50 growth): 0.03 µg/mL (≈ 93.8 nM)
IC50 (clone D6 (P. falciparum); D6, read-out: IC50 growth): 1.6 ng/mL (≈ 5 nM)

CCCCCCC(CC=CCCCCCCCC(=O)O)OC(=O)CN(CCN(CC(=O)O)CC(=O)OC(CC=CCCCCCCCC(=O)O)CCCCCC)CC(=O)O (centres unmarked) [N,N-Bis(oleic acid-12-oxycarbonylmethyl)-N-N′bis(carboxylmethyl) ethylenediamine]
solubility in water (solubility in water): readily soluble in water

CCCCCCCC/C=C\CCCCCCCC(=O)O [oleic acid]
inhibition of in vitro PLA2 activity [1]: inhibited
